Patent US20240109900A1, “AZABICYCLIC SHP2 INHIBITORS” (IRBM S.P.A., priority 2021, published 2024)
Like-named read-outs stand apart in the source and are kept apart here.

Experiments:
[1] = target: SHP-2 enzyme (Met1-Leu525) (Homo sapiens (Human), UniProt Q06124); assay: SHP2 inhibition enzymatic assay; format: biochemical; conditions: read-out: SHP2wt-IC50
Outline: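 Compounds were preincubated 30 min with 0.5 nM SHP-2 (Met1-Leu525) plus 500 nM IRS1 activating peptide (pH 7.2 HEPES, 5 mM DTT), then 75 μM DiFMUP substrate reacted 30 min at room temperature. After bpV quench, DiFMUP fluorescence gave % inhibition; four-parameter logistic fit yielded IC50.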

[2] = test system: ERK phosphorylation in KYSE-520 cells; assay: Phospho-ERK cellular assay; format: cell-based; conditions: Homo sapiens, KYSE-520 cells, 2 h at 37° C., phospho-ERK1/2 (Thr202/Tyr204) TR-FRET, read-out: PERK IC50
Outline: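 TR-FRET read-out of ERK1/2 Thr202/Tyr204 phosphorylation was taken after overnight antibody incubation at room temperature. Before that, KYSE-520 cells were treated 2 h at 37 °C with compound dilutions and lysed 30 min. Percent inhibition relative to vehicle and cell-free wells was fitted four-parametrically to give IC50.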

[3] = 0.5 nM SHP-2 activated by 500 nM IRS1 peptide, 75 μM DiFMUP substrate

Sequence of SHP-2 enzyme (Met1-Leu525) (Q06124 1-525): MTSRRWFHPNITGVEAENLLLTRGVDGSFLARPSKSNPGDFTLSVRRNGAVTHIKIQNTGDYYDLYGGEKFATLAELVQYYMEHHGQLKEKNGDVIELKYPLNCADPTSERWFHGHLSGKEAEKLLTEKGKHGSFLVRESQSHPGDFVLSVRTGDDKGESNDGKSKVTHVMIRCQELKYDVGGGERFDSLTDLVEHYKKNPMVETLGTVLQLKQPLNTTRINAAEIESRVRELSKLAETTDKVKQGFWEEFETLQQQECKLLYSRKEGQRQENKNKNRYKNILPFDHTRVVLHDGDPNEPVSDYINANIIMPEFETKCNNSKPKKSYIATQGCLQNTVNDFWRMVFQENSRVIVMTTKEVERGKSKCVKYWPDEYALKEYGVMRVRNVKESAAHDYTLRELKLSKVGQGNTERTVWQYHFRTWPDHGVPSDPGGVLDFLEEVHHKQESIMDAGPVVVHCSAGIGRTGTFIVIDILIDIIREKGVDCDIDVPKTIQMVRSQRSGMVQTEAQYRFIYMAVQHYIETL

Compound	IC50 [1, 3]	IC50 ([2]; KYSE-520, 2 h)	IC50 [1]	IC50 [2]
NCC1(c2ccccn2)C2CCN(c3nc4nc(Sc5cccnc5C(F)(F)F)cnc4[nH]3)CC21 (stereo not shown) [Example 65, (7-(pyridin-2-yl)-3-(5-((2-(trifluoromethyl)pyridin-3-yl)thio)-1H-imidazo[4,5-b]pyrazin-2-yl)-3-azabicyclo[4.1.0]heptan-7-yl)methanamine]	< 500 nM	1000 to 5000 nM		
NCC1(c2ncccn2)C2CCN(c3nc4nc(Sc5cccnc5C(F)(F)F)cnc4[nH]3)CC21 (stereo not shown) [Example 66, (7-(pyrimidin-2-yl)-3-(5-((2-(trifluoromethyl)pyridin-3-yl)thio)-1H-imidazo[4,5-b]pyrazin-2-yl)-3-azabicyclo[4.1.0]heptan-7-yl)methanamine]	< 500 nM	< 1000 nM		
Cc1csc(C2(CN)C3CCN(c4nc5nc(Sc6cccnc6C(F)(F)F)cnc5[nH]4)CC32)n1 (stereo not shown) [Example 67, (7-(4-methylthiazol-2-yl)-3-(5-((2-(trifluoromethyl)pyridin-3-yl)thio)-1H-imidazo[4,5-b]pyrazin-2-yl)-3-azabicyclo[4.1.0]heptan-7-yl)methanamine]	< 500 nM	< 1000 nM		
NCC1C2CCN(c3nc4nc(Sc5cccnc5C(F)(F)F)cnc4[nH]3)CC12 (stereo not shown) [Example 68, (3-(5-((2-(trifluoromethyl)pyridin-3-yl)thio)-1H-imidazo[4,5-b]pyrazin-2-yl)-3-azabicyclo[4.1.0]heptan-7-yl)methanamine]			< 500 nM	> 5000 nM
NCC1(c2ccccc2)C2CCN(c3nc4nc(Sc5ccnc(N)c5Cl)cnc4[nH]3)CC21 (stereo not shown) [Example 69, 4-((2-(7-(aminomethyl)-7-phenyl-3-azabicyclo[4.1.0]heptan-3-yl)-1H-imidazo[4,5-b]pyrazin-5-yl)thio)-3-chloropyridin-2-amine]			< 500 nM	1000 to 5000 nM
Cc1csc(C2(CN)C3CCN(c4nc5nc(Sc6ccnc(N)c6Cl)cnc5[nH]4)CC32)n1 (stereo not shown) [Example 70, 4-((2-(7-(aminomethyl)-7-(4-methylthiazol-2-yl)-3-azabicyclo[4.1.0]heptan-3-yl)-1H-imidazo[4,5-b]pyrazin-5-yl)thio)-3-chloropyridin-2-amine]			< 500 nM	< 1000 nM
NCC1(c2ccccc2)C2CCN(c3cnc(Sc4cccnc4C(F)(F)F)c(N)n3)CC21 (stereo not shown) [Example 71, 6-(7-(aminomethyl)-7-phenyl-3-azabicyclo[4.1.0]heptan-3-yl)-3-((2-(trifluoromethyl)pyridin-3-yl)thio)pyrazin-2-amine]	< 500 nM	> 5000 nM		
NCC1(c2ccccn2)C2CCN(c3cnc(Sc4cccnc4C(F)(F)F)c(N)n3)CC21 (stereo not shown) [Example 72, 6-(7-(aminomethyl)-7-(pyridin-2-yl)-3-azabicyclo[4.1.0]heptan-3-yl)-3-((2-(trifluoromethyl)pyridin-3-yl)thio)pyrazin-2-amine]	< 500 nM	< 1000 nM		
Cc1csc(C2(CN)C3CCN(c4cnc(Sc5cccnc5C(F)(F)F)c(N)n4)CC32)n1 (stereo not shown) [Example 73, 6-(7-(aminomethyl)-7-(4-methylthiazol-2-yl)-3-azabicyclo[4.1.0]heptan-3-yl)-3-((2-(trifluoromethyl)pyridin-3-yl)thio)pyrazin-2-amine]	< 500 nM	1000 to 5000 nM		
Cc1csc(C2(CN)C3CCN(c4cnc(Sc5ccnc(N)c5Cl)c(N)n4)CC32)n1 (stereo not shown) [Example 74, 3-((2-amino-3-chloropyridin-4-yl)thio)-6-(7-(aminomethyl)-7-(4-methylthiazol-2-yl)-3-azabicyclo[4.1.0]heptan-3-yl)pyrazin-2-amine]			< 500 nM	1000 to 5000 nM
Cc1csc(C2(CN)C3CCN(c4ncc(Sc5ccnc(N)c5Cl)c5nccn45)CC32)n1 (stereo not shown) [Example 76, 4-((5-(7-(aminomethyl)-7-(4-methylthiazol-2-yl)-3-azabicyclo[4.1.0]heptan-3-yl)imidazo[1,2-c]pyrimidin-8-yl)thio)-3-chloropyridin-2-amine]			< 500 nM	> 5000 nM

Further lines, with some results ahead:

IC50 [1, 3]	IC50 ([2]; KYSE-520, 2 h)	Compound	IC50 [1]	IC50 [2]
< 500 nM	> 5000 nM	NCC1C2CCN(c3cnc(Sc4cccnc4C(F)(F)F)c(N)n3)CC12 (stereo not shown) [Example 75, 6-(7-(aminomethyl)-3-azabicyclo[4.1.0]heptan-3-yl)-3-((2-(trifluoromethyl)pyridin-3-yl)thio)pyrazin-2-amine]		
< 500 nM	< 1000 nM	Cc1csc(C2(CN)C3CCN(c4cnc5c(-c6cccc(Cl)c6Cl)n[nH]c5n4)CC32)n1 (stereo not shown) [Example 77, (3-(3-(2,3-dichlorophenyl)-1H-pyrazolo[3,4-b]pyrazin-6-yl)-7-(4-methylthiazol-2-yl)-3-azabicyclo[4.1.0]heptan-7-yl)methanamine]		
< 500 nM	< 1000 nM	Cc1csc([C@@]2(CN)[C@@H]3CCN(c4cnc5c(-c6cccc(Cl)c6Cl)n[nH]c5n4)C[C@@H]32)n1 [Example 78, ((1S,6R,7S)-3-(3-(2,3-dichlorophenyl)-1H-pyrazolo[3,4-b]pyrazin-6-yl)-7-(4-methylthiazol-2-yl)-3-azabicyclo[4.1.0]heptan-7-yl)methanamine]		
< 500 nM	< 1000 nM	Cc1csc([C@@]2(CN)[C@@H]3CCN(c4cnc5c(-c6ccc7nn(C)cc7c6Cl)n[nH]c5n4)C[C@@H]32)n1 [Example 79, ((1S,6R,7S)-3-(3-(4-chloro-2-methyl-2H-indazol-5-yl)-1H-pyrazolo[3,4-b]pyrazin-6-yl)-7-(4-methylthiazol-2-yl)-3-azabicyclo[4.1.0]heptan-7-yl)methanamine]		
< 500 nM	< 1000 nM	NCC1(c2ccccc2)C2CCN(c3cnc4c(-c5cccc(Cl)c5Cl)n[nH]c4n3)CC21 (stereo not shown) [Example 80, (3-(3-(2,3-dichlorophenyl)-1H-pyrazolo[3,4-b]pyrazin-6-yl)-7-phenyl-3-azabicyclo[4.1.0]heptan-7-yl)methanamine]		
< 500 nM	< 1000 nM	Cn1cc2c(Cl)c(-c3n[nH]c4nc(N5CCC6C(C5)C6(CN)c5ccccc5)cnc34)ccc2n1 (stereo not shown) [Example 81, (3-(3-(4-chloro-2-methyl-2H-indazol-5-yl)-1H-pyrazolo[3,4-b]pyrazin-6-yl)-7-phenyl-3-azabicyclo[4.1.0]heptan-7-yl)methanamine]		
< 500 nM	< 1000 nM	NCC1(c2ccccn2)C2CCN(c3cnc4c(-c5cccc(Cl)c5Cl)n[nH]c4n3)CC21 (stereo not shown) [Example 82, (3-(3-(2,3-dichlorophenyl)-1H-pyrazolo[3,4-b]pyrazin-6-yl)-7-(pyridin-2-yl)-3-azabicyclo [4.1.0]heptan-7-yl)methanamine]		
< 500 nM	< 1000 nM	NCC1(c2ncccn2)C2CCN(c3cnc4c(-c5cccc(Cl)c5Cl)n[nH]c4n3)CC21 (stereo not shown) [Example 83, (3-(3-(2,3-dichlorophenyl)-1H-pyrazolo[3,4-b]pyrazin-6-yl)-7-(pyrimidin-2-yl)-3-azabicyclo [4.1.0]heptan-7-yl)methanamine]		
< 500 nM	< 1000 nM	Cc1csc(C2(CN)C3CCN(c4cnc5c(-c6ccccc6Cl)n[nH]c5n4)CC32)n1 (stereo not shown) [Example 84, (3-(3-(2-chlorophenyl)-1H-pyrazolo[3,4-b]pyrazin-6-yl)-7-(4-methylthiazol-2-yl)-3-azabicyclo[4.1.0]heptan-7-yl)methanamine]		
< 500 nM	< 1000 nM	Cc1csc(C2(CN)C3CCN(c4cnc5c(-c6cccc(Cl)c6)n[nH]c5n4)CC32)n1 (stereo not shown) [Example 85, (3-(3-(3-chlorophenyl)-1H-pyrazolo[3,4-b]pyrazin-6-yl)-7-(4-methylthiazol-2-yl)-3-azabicyclo[4.1.0]heptan-7-yl)methanamine]		
< 500 nM	< 1000 nM	Cc1csc(C2(CN)C3CCN(c4cnc5c(-c6cccc(F)c6F)n[nH]c5n4)CC32)n1 (stereo not shown) [Example 86, (3-(3-(2,3-difluorophenyl)-1H-pyrazolo[3,4-b]pyrazin-6-yl)-7-(4-methylthiazol-2-yl)-3-azabicyclo[4.1.0]heptan-7-yl)methanamine]		
< 500 nM	< 1000 nM	COc1cccc(-c2n[nH]c3nc(N4CCC5C(C4)C5(CN)c4nc(C)cs4)cnc23)c1Cl (stereo not shown) [Example 87, (3-(3-(2-chloro-3-methoxyphenyl)-1H-pyrazolo[3,4-b]pyrazin-6-yl)-7-(4-methylthiazol-2-yl)-3-azabicyclo[4.1.0]heptan-7-yl)methanamine]		
< 500 nM	< 1000 nM	Cc1csc(C2(CN)C3CCN(c4cnc5c(-c6cccc7ncccc67)n[nH]c5n4)CC32)n1 (stereo not shown) [Example 88, (7-(4-methylthiazol-2-yl)-3-(3-(quinolin-5-yl)-1H-pyrazolo[3,4-b]pyrazin-6-yl)-3-azabicyclo[4.1.0]heptan-7-yl)methanamine]		
< 500 nM	< 1000 nM	Cc1csc(C2(CN)C3CCN(c4cnc5c(-c6cccc7ccccc67)n[nH]c5n4)CC32)n1 (stereo not shown) [Example 89, (7-(4-methylthiazol-2-yl)-3-(3-(naphthalen-1-yl)-1H-pyrazolo[3,4-b]pyrazin-6-yl)-3-azabicyclo[4.1.0]heptan-7-yl)methanamine]		
< 500 nM	< 1000 nM	Cc1csc(C2(CN)C3CCN(c4cnc5c(-c6cccnc6C(F)(F)F)n[nH]c5n4)CC32)n1 (stereo not shown) [Example 90, (7-(4-methylthiazol-2-yl)-3-(3-(2-(trifluoromethyl)pyridin-3-yl)-1H-pyrazolo[3,4-b]pyrazin-6-yl)-3-azabicyclo[4.1.0]heptan-7-yl)methanamine]		
